Measurements from US20130196984A1, “3-AMINO-5-PHENYL-56-DIHYDRO-2H-[1,4]OXAZINES” (Siena Biotech S.p.A., priority 2009, published 2013).
pIC50, pKd: −log10 of the molar value. Where a name gives a salt, the structure may show the parent alone.

What was measured:
BACE1 [1] = target: T1, BACE1 (Homo sapiens, UniProt P56817); assay: Cellular Abeta-lowering assay; format: cell-based; set-up: endogenous in cells; host or cells: HEK293 stably transfected with human APP695 wt; details: HEK293 cells stably transfected with human APP wt (APP695), Aβ40 ELISA of supernatant after 18-20 hrs
BACE1 [2] = target: T1, BACE1; assay: Assay A: binding studies using SPR based methods, immobilised BACE1; set-up: 6his-tagged full length BACE 1 expressed in SF9 cells; 6His; made in house; host or cells: SF9 insect cells; details: CM5 chip, immobilised 6his-tagged full length BACE 1, acetate buffer pH 4.6, 4% DMSO;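 note: KD from a 1:1 kinetic fit (koff/kon) of real-time association and dissociation curves, or for fast binders from end-of-association equilibrium responses plotted against log concentration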
BACE2 = target: T2, BACE2 (Homo sapiens, UniProt Q9Y5Z0); assay: Assay A: binding studies using SPR based methods, immobilised BACE2; details: CM5 chip, immobilised BACE2 enzyme ectodomain, acetate buffer pH 4.6, 4% DMSO
T2 construct: BACE2 enzyme ectodomain (derived from plasmid “pET17b-T7-hu proBACE2”); T7 (N); made in house
T2 sequence (Q9Y5Z0 63-473 limits assumed): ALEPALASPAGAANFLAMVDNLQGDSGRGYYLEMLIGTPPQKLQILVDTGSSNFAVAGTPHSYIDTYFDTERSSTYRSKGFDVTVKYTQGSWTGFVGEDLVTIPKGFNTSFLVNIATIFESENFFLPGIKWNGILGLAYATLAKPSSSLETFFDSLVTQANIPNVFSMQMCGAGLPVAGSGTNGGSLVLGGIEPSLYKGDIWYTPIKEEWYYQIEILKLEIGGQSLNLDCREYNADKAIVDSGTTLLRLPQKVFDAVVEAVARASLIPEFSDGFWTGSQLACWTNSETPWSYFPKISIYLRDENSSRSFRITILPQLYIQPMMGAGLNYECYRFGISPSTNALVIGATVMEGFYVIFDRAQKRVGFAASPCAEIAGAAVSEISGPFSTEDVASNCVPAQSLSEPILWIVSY

T1 sequence (P56817 46-501): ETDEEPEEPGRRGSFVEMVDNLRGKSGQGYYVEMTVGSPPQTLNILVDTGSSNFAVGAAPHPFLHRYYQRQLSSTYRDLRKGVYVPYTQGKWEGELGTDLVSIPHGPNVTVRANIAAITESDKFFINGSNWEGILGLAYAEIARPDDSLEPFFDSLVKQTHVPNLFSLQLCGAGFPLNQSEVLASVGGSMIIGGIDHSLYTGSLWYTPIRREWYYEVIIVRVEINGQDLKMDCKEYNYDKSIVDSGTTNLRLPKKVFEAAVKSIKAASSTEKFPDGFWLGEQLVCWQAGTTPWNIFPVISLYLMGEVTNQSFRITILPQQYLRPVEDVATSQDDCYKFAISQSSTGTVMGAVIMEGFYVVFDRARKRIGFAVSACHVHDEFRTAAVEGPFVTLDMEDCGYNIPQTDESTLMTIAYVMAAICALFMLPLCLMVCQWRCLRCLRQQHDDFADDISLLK

pIC50 (BACE1 [1])	pKd (BACE1 [2])	pKd (BACE2)	SMILES
8.00	–	–	CC1(c2cccc(NC(=O)c3ncc(Cl)cc3F)c2)COCC(N)=N1 (racemic) [Example 68, hydrochloride]
8.05	–	–	CC1(c2cccc(NC(=O)c3ccc(C#N)cn3)c2)COCC(N)=N1 (racemic) [Example 69, 5-cyano-pyridine-2-carboxylic acid [3-((RS)-5-amino-3-methyl-3,6-dihydro-2H-[1,4]oxazin-3-yl)-phenyl]-amide hydrochloride]
7.82	7.03	6.01	CC1(c2cc(NC(=O)c3ccc(-c4ccco4)cn3)ccc2F)COCC(N)=N1 (racemic) [Example 76, 5-furan-2-yl-pyridine-2-carboxylic acid [3-((RS)-5-amino-3-methyl-3,6-dihydro-2H-[1,4]oxazin-3-yl)-4-fluoro-phenyl]-amide]
6.10	5.84	5.59	CC1(c2cc(NC(=O)c3ccc(N4CCCC4)cn3)ccc2F)COCC(N)=N1 (racemic) [Example 77, 5-pyrrolidin-1-yl-pyridine-2-carboxylic acid [3-((RS)-5-amino-3-methyl-3,6-dihydro-2H-[1,4]oxazin-3-yl)-4-fluoro-phenyl]-amide]
–	5.96	7.35	CCc1cc(Cl)cnc1C(=O)Nc1ccc(F)c([C@]2(C)COCC(N)=N2)c1 [Example 70, 5-chloro-3-ethyl-pyridine-2-carboxylic acid [3-((R)-5-amino-3-methyl-3,6-dihydro-2H-[1,4]oxazin-3-yl)-4-fluoro-phenyl]-amide hydrochloride]
–	< 5.00	5.44	COCC1(C(=O)Nc2ccc(F)c([C@]3(C)COCC(N)=N3)c2)CC1 [Example 86, 1-methoxymethyl-cyclopropanecarboxylic acid [3-((R)-5-amino-3-methyl-3,6-dihydro-2H-[1,4]oxazin-3-yl)-4-fluoro-phenyl]-amide formate]
–	< 5.00	5.44	CC(C)CC(=O)Nc1ccc(F)c([C@]2(C)COCC(N)=N2)c1 [Example 95, N-[3-((R)-5-amino-3-methyl-3,6-dihydro-2H-[1,4]oxazin-3-yl)-4-fluoro-phenyl]-3-methyl-butyramide formate]
–	< 5.00	5.75	C[C@@]1(c2cc(NC=O)ccc2F)COCC(N)=N1 [Example 97, N-[3-((R)-5-Amino-3-methyl-3,6-dihydro-2H-[1,4]oxazin-3-yl)-4-fluoro-phenyl]-formamide formate]

The remaining lines, values behind:

SMILES	pIC50 (BACE1 [1])	pKd (BACE1 [2])	pKd (BACE2)
Cc1nc(C(=O)Nc2cccc(C3(C)COCC(N)=N3)c2)c(C)o1 (racemic) [Example 11, (RS)-2,5-dimethyl-oxazole-4-carboxylic acid [3-(5-amino-3-methyl-3,6-dihydro-2H-[1,4]oxazin-3-yl)-phenyl]-amide]	7.39	6.31	7.36
NC1=NC(c2cc(NC(=O)c3ccc(OCC(F)(F)F)cn3)ccc2F)(C2CC2)COC1 (racemic) [Example 23, (RS)-5-(2,2,2-Trifluoro-ethoxy)-pyridine-2-carboxylic acid [3-(5-amino-3-cyclopropyl-3,6-dihydro-2H-[1,4]oxazin-3-yl)-4-fluoro-phenyl]-amide]	6.80	6.51	4.97
CC1(c2cccc(NC(=O)c3ccc(OCC(F)(F)F)cn3)c2)COCC(N)=N1 (racemic) [Example 24, (RS)-5-(2,2,2-Trifluoro-ethoxy)-pyridine-2-carboxylic acid [3-(5-amino-3-methyl-3,6-dihydro-2H-[1,4]oxazin-3-yl)-phenyl]-amide hydrochloride]	6.92	5.73	5.24
CC1(c2cccc(NC(=O)c3cnccn3)c2)COCC(N)=N1 (racemic) [Example 25, (RS)-Pyrazine-2-carboxylic acid [3-(5-amino-3-methyl-3,6-dihydro-2H-[1,4]oxazin-3-yl)phenyl]-amide hydrochloride]	6.39	5.38	5.91
CCCCc1ccc(C(=O)Nc2cccc(C3(C)COCC(N)=N3)c2)nc1 (racemic) [Example 32, 5-butyl-pyridine-2-carboxylic acid [3-((RS)-5-amino-3-methyl-3,6-dihydro-2H-[1,4]oxazin-3-yl)-phenyl]-amide hydrochloride]	6.17	5.38	4.70
CC1(c2cccc(NC(=O)c3ncc(C(F)(F)F)cc3Cl)c2)COCC(N)=N1 (racemic) [Example 33, 3-Chloro-5-trifluoromethyl-pyridine-2-carboxylic acid [3-((RS)-5-amino-3-methyl-3,6-dihydro-2H-[1,4]oxazin-3-yl)-phenyl]-amide]	7.59	7.11	6.85
CC1(c2cc(NC(=O)c3ccc(-c4cnco4)cc3)ccc2F)COCC(N)=N1 (racemic) [Example 52, (RS)—N-[3-(5-amino-3-methyl-3,6-dihydro-2H-[1,4]oxazin-3-yl)-4-fluoro-phenyl]-4-oxazol-5-yl-benzamide]	5.93	6.71	< 5.00
CC1(c2cccc(NC(=O)c3ccc(OCC4CC4)cn3)c2)COCC(N)=N1 (racemic) [Example 60, 5-cyclopropylmethoxy-pyridine-2-carboxylic acid [3-((RS)-5-amino-3-methyl-3,6-dihydro-2H-[1,4]oxazin-3-yl)-phenyl]-amide hydrochloride]	6.85	6.95	6.93
CC1(c2cccc(NC(=O)c3ccc(OCCF)cn3)c2)COCC(N)=N1 (racemic) [Example 61, 5-(2-fluoro-ethoxy)-pyridine-2-carboxylic acid [3-((RS)-5-amino-3-methyl-3,6-dihydro-2H-[1,4]oxazin-3-yl)-phenyl]-amide hydrochloride]	6.41	6.36	5.33
CC1(c2cccc(NC(=O)c3ccc(OCC(F)F)cn3)c2)COCC(N)=N1 (racemic) [Example 62, 5-(2,2-difluoro-ethoxy)-pyridine-2-carboxylic acid [3-((RS)-5-amino-3-methyl-3,6-dihydro-2H-[1,4]oxazin-3-yl)-phenyl]-amide hydrochloride]	6.57	5.26	5.13
CC1(c2cccc(NC(=O)c3ccncn3)c2)COCC(N)=N1 (racemic) [Example 63, pyrimidine-4-carboxylic acid [3-((RS)-5-amino-3-methyl-3,6-dihydro-2H-[1,4]oxazin-3-yl)-phenyl]-amide]	6.29	5.51	5.96
C=CCCOc1ccc(C(=O)Nc2cccc(C3(C)COCC(N)=N3)c2)nc1 (racemic) [Example 64, 5-but-3-enyloxy-pyridine-2-carboxylic acid [3-((RS)-5-amino-3-methyl-3,6-dihydro-2H-[1,4]oxazin-3-yl)-phenyl]-amide]	6.18	6.32	5.11
Cc1cnc(C(=O)Nc2cccc(C3(C)COCC(N)=N3)c2)cn1 (racemic) [Example 65, 5-methyl-pyrazine-2-carboxylic acid [3-((RS)-5-amino-3-methyl-3,6-dihydro-2H-[1,4]oxazin-3-yl)-phenyl]-amide]	6.74	5.61	5.95
CC1(c2cccc(NC(=O)c3ccc(OCc4ccccc4)cn3)c2)COCC(N)=N1 (racemic) [Example 66, 5-benzyloxy-pyridine-2-carboxylic acid [3-((RS)-5-amino-3-methyl-3,6-dihydro-2H-[1,4]oxazin-3-yl)-phenyl]-amide hydrochloride]	6.17	6.76	6.80
C[C@@]1(c2cc(NC(=O)c3ccc(Cl)cn3)ccc2F)CO[C@H](c2ccccc2)C(N)=N1 [Example 30, 5-Chloro-pyridine-2-carboxylic acid [3-((3R,6R)-5-amino-3-methyl-6-phenyl-3,6-dihydro-2H-[1,4]oxazin-3-yl)-4-fluoro-phenyl]-amide]	7.64	–	–
C[C@@]1(c2cc(NC(=O)c3ccc(Cl)cn3)ccc2F)CO[C@@H](c2ccccc2)C(N)=N1 [Example 31, 5-Chloro-pyridine-2-carboxylic acid [3-((3R,6S)-5-amino-3-methyl-6-phenyl-3,6-dihydro-2H-[1,4]oxazin-3-yl)-4-fluoro-phenyl]-amide]	7.64	–	–
C[C@@]1(c2cc(NC(=O)C3CC(F)(F)C3)ccc2F)COCC(N)=N1 [Example 59, 3,3-difluoro-cyclobutanecarboxylic acid [3-((R)-5-amino-3-methyl-3,6-dihydro-2H-[1,4]oxazin-3-yl)-4-fluoro-phenyl]-amide]	–	5.02	5.40
C[C@@]1(c2cc(NC(=O)c3ncc(C#N)cc3Cl)ccc2F)COCC(N)=N1 [Example 67, 3-Chloro-5-cyano-pyridine-2-carboxylic acid [3-((R)-5-amino-3-methyl-3,6-dihydro-2H-[1,4]oxazin-3-yl)-4-fluoro-phenyl]-amide hydrochloride]	–	7.96	7.82
